Source: article PMC4591263, “The GSTome Reflects the Chemical Environment of White-Rot Fungi” (PLoS ONE, 2015)

What was measured:
Assay in all cases: GSH conjugation of CDNB, Michaelis-Menten fit
Assay type in all cases: biochemical
Conditions in all cases: saturating GSH
[1] = molecular target: T1, TvGSTO-6S (Trametes versicolor, UniProt A0A384E158)
T1 construct: synthetic gene in pET-26b (NdeI/NotI), C-terminal His-tag, E. coli Rosetta2 (DE3) pLysS
T1 sequence (A0A384E158 1-246): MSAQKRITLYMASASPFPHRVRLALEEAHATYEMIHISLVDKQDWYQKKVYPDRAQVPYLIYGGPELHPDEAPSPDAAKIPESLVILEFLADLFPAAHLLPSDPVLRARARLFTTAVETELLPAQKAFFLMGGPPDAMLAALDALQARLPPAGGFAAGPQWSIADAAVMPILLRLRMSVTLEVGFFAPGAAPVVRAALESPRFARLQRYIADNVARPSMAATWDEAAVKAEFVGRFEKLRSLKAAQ

[2] = molecular target: T2, TvGSTO-1S (Trametes versicolor, UniProt R7S9J3)
T2 construct: gene TRAVEDRAFT_75639; synthetic gene in pET-26b (NdeI/NotI), C-terminal His-tag, E. coli Rosetta2 (DE3) pLysS
T2 sequence (R7S9J3 1-256): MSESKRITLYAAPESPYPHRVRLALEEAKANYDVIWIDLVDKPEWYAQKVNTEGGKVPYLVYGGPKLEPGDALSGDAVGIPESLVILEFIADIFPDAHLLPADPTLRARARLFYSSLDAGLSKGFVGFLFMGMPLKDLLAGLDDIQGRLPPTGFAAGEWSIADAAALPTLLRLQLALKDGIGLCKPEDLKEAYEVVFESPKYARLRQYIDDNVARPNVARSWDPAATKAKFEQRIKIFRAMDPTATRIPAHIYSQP

[3] = molecular target: T3, TvGSTO-3S (Trametes versicolor, UniProt A0A384E145)
T3 construct: synthetic gene in pET-26b (NdeI/NotI), C-terminal His-tag, E. coli Rosetta2 (DE3) pLysS
T3 sequence (A0A384E145 1-240): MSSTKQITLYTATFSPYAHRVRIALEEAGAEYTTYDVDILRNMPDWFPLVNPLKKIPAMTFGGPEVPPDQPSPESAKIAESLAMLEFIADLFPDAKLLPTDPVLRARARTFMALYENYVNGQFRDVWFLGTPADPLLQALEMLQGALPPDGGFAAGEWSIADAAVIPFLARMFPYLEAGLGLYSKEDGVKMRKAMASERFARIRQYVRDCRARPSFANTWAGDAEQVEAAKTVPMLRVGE

Structure (SMILES): O=[N+]([O-])c1ccc(Cl)c([N+](=O)[O-])c1 [CDNB, 1-chloro-2,4-dinitrobenzene]
- Km [1]: All proteins exhibit an activity against CDNB
- Km [2]: All proteins exhibit an activity against CDNB
- Km [3]: All proteins exhibit an activity against CDNB
